Source: patent US12286442B2, “Methods and materials for increasing transcription factor eb polypeptide levels” (University of Pittsburgh—Of the Commonwealth System of …, priority 2019, dated 2025)

Each molecule was assayed on TFEB (assay: High content screen measuring TFEB nuclear accumulation (TFEB nuclear/cytosol ratio) in BEAS-2B cells stably expressing TFEB-EGFP). Conditions: 18 hours incubation.
Format: cell-based, human
In short: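 BEAS-2B cells stably expressing TFEB-EGFP (~2300–2500 per well) pre-incubated 8 hours, then exposed to serially diluted compounds (DMEM low glucose, 2% FBS) for 18 hours, PFA-fixed and DAPI-stained. Imaged nuclear (DAPI mask) vs cytosolic (expanded mask) TFEB-GFP; activity = minimal concentration raising nuclear/cytosol ratio by 25%.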
`COc1cc(C)cc(Nc2nc(-c3ccncc3)nc3ccccc23)c1` [Compound 20] was tested, and the “efficacy (minimal compound concentration needed to increase TFEB nuclear/cytosol ratio by 25%)” value was “++ (“++” equals between ≤25 μM and >1 μM)”.
In the case of `CC(C)c1nc2ccc(Nc3nc(-c4ccncc4)cc4ncccc34)cc2s1` [Compound 240], the “efficacy (minimal compound concentration needed to increase TFEB nuclear/cytosol ratio by 25%)” value is reported as “+++ (“+++” equals ≤1 μM)”.
With `CC(=O)c1cc(C)cc(Nc2nc(-c3ccncc3)nc3ccccc23)c1` [Compound 52] the “efficacy (minimal compound concentration needed to increase TFEB nuclear/cytosol ratio by 25%)” value was “+ (“+” equals >25 μM)”.
For `Fc1ccc(Nc2nc(-c3ccncc3)nc3ccccc23)cc1F` [Compound 183], the “efficacy (minimal compound concentration needed to increase TFEB nuclear/cytosol ratio by 25%)” value was “++ (“++” equals between ≤25 μM and >1 μM)”.
`CC(C)c1nc2ccc(Nc3nc(-c4ccncc4)nc4ccccc34)cc2s1` [Compound 94] was tested, and the “efficacy (minimal compound concentration needed to increase TFEB nuclear/cytosol ratio by 25%)” value was “+++ (“+++” equals ≤1 μM)”.
For `Cc1cccc2c(Nc3ccc4nc(C(C)C)sc4c3)nc(-c3ccncc3)nc12` [Compound 155], the “efficacy (minimal compound concentration needed to increase TFEB nuclear/cytosol ratio by 25%)” value was “+++ (“+++” equals ≤1 μM)”.
In the case of `Cc1ccc(NC(=O)Cn2c(=O)n(-c3ccccc3)c(=O)c3ccc(C(=O)NCc4ccco4)cc32)cc1` [Compound 219], the “efficacy (minimal compound concentration needed to increase TFEB nuclear/cytosol ratio by 25%)” value is reported as “+ (“+” equals >25 μM)”.
In the case of `CC(C)c1nc2ccc(Nc3nc(-c4ccncc4)nc4ccccc34)cc2o1` [Compound 374], the “efficacy (minimal compound concentration needed to increase TFEB nuclear/cytosol ratio by 25%)” value is reported as “++ (“++” equals between ≤25 μM and >1 μM)”.
`COc1ccc2nc(-c3ccncc3)nc(Nc3ccc4nc(C(C)C)sc4c3)c2c1` [Compound 352] was tested, and the “efficacy (minimal compound concentration needed to increase TFEB nuclear/cytosol ratio by 25%)” value was “++ (“++” equals between ≤25 μM and >1 μM)”.
With `c1ccc2c(Nc3ccc4ncncc4c3)nc(-c3ccncc3)nc2c1` [Compound 102] the “efficacy (minimal compound concentration needed to increase TFEB nuclear/cytosol ratio by 25%)” value was “+++ (“+++” equals ≤1 μM)”.
With `Cc1nc2ccc(Nc3nc(-c4ccncc4)cc4ncccc34)cc2s1` [Compound 400] the “efficacy (minimal compound concentration needed to increase TFEB nuclear/cytosol ratio by 25%)” value was “+++ (“+++” equals ≤1 μM)”.
In the case of `CCc1nc2ccc(Nc3nc(-c4ccncc4)nc4ccccc34)cc2o1` [Compound 360], the “efficacy (minimal compound concentration needed to increase TFEB nuclear/cytosol ratio by 25%)” value is reported as “+ (“+” equals >25 μM)”.

What follows are molecules tested on BEAS-2B cells (assay: Toxicity: compound concentration needed to induce greater than 50 percent of cell loss). Conditions: 18 hours incubation.
Format: cell-based, human
In short: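 BEAS-2B cells stably expressing TFEB-EGFP treated with serial compound dilutions for 18 h, then PFA-fixed, DAPI-stained and imaged. Toxicity scored as the concentration causing >50% cell loss, binned as ≥25 μM, <25 and >1 μM, or ≤1 μM ("+++").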
With `COc1cc(C)cc(Nc2nc(-c3ccncc3)nc3ccccc23)c1` [Compound 20] the “toxicity (compound concentration needed to induce greater than 50 percent of cell loss)” value was “+ (cell loss of greater than 50 percent at a concentration that equals or is greater than 25 μM was represented as)”.
In the case of `CC(C)c1nc2ccc(Nc3nc(-c4ccncc4)cc4ncccc34)cc2s1` [Compound 240], the “toxicity (compound concentration needed to induce greater than 50 percent of cell loss)” value is reported as “+ (cell loss of greater than 50 percent at a concentration that equals or is greater than 25 μM was represented as)”.
For `CC(=O)c1cc(C)cc(Nc2nc(-c3ccncc3)nc3ccccc23)c1` [Compound 52], the “toxicity (compound concentration needed to induce greater than 50 percent of cell loss)” value was “+ (cell loss of greater than 50 percent at a concentration that equals or is greater than 25 μM was represented as)”.
`Fc1ccc(Nc2nc(-c3ccncc3)nc3ccccc23)cc1F` [Compound 183] was tested, and the “toxicity (compound concentration needed to induce greater than 50 percent of cell loss)” value was “+ (cell loss of greater than 50 percent at a concentration that equals or is greater than 25 μM was represented as)”.
With `CC(C)c1nc2ccc(Nc3nc(-c4ccncc4)nc4ccccc34)cc2s1` [Compound 94] the “toxicity (compound concentration needed to induce greater than 50 percent of cell loss)” value was “+ (cell loss of greater than 50 percent at a concentration that equals or is greater than 25 μM was represented as)”.
With `Cc1cccc2c(Nc3ccc4nc(C(C)C)sc4c3)nc(-c3ccncc3)nc12` [Compound 155] the “toxicity (compound concentration needed to induce greater than 50 percent of cell loss)” value was “+ (cell loss of greater than 50 percent at a concentration that equals or is greater than 25 μM was represented as)”.
For `Cc1ccc(NC(=O)Cn2c(=O)n(-c3ccccc3)c(=O)c3ccc(C(=O)NCc4ccco4)cc32)cc1` [Compound 219], the “toxicity (compound concentration needed to induce greater than 50 percent of cell loss)” value was “+ (cell loss of greater than 50 percent at a concentration that equals or is greater than 25 μM was represented as)”.
`CC(C)c1nc2ccc(Nc3nc(-c4ccncc4)nc4ccccc34)cc2o1` [Compound 374] was tested, and the “toxicity (compound concentration needed to induce greater than 50 percent of cell loss)” value was “+ (cell loss of greater than 50 percent at a concentration that equals or is greater than 25 μM was represented as)”.
With `COc1ccc2nc(-c3ccncc3)nc(Nc3ccc4nc(C(C)C)sc4c3)c2c1` [Compound 352] the “toxicity (compound concentration needed to induce greater than 50 percent of cell loss)” value was “+ (cell loss of greater than 50 percent at a concentration that equals or is greater than 25 μM was represented as)”.
In the case of `c1ccc2c(Nc3ccc4ncncc4c3)nc(-c3ccncc3)nc2c1` [Compound 102], the “toxicity (compound concentration needed to induce greater than 50 percent of cell loss)” value is reported as “+ (cell loss of greater than 50 percent at a concentration that equals or is greater than 25 μM was represented as)”.
`Cc1nc2ccc(Nc3nc(-c4ccncc4)cc4ncccc34)cc2s1` [Compound 400] was tested, and the “toxicity (compound concentration needed to induce greater than 50 percent of cell loss)” value was “+ (cell loss of greater than 50 percent at a concentration that equals or is greater than 25 μM was represented as)”.
In the case of `CCc1nc2ccc(Nc3nc(-c4ccncc4)nc4ccccc34)cc2o1` [Compound 360], the “toxicity (compound concentration needed to induce greater than 50 percent of cell loss)” value is reported as “+ (cell loss of greater than 50 percent at a concentration that equals or is greater than 25 μM was represented as)”.
